Results reported in article doi:10.1101/2021.05.05.442828v1 (biorxiv, 2021).

What was measured:
Format in all cases: cell-based
KV11.1 (hERG) = KV11.1 (hERG) (Homo sapiens, UniProt Q12809); test: automated patch clamp
TRPM8 (hTRPM8) = TRPM8 (hTRPM8) (Homo sapiens, UniProt Q7Z2W7); test: Fluo-4 calcium flux assay, HEK-293 TRPM8 cells; settings: antagonist mode; 30 min incubation; normalized to icilin (50 µM) response
KCa1.1 (hKCa1.1, KCNMA) = KCa1.1 (hKCa1.1, KCNMA) (Homo sapiens, UniProt Q12791); test: two-electrode voltage clamp, Xenopus laevis oocytes; settings: Kulori solution, pH 7.4; n=5
Chain of KCa1.1 (hKCa1.1, KCNMA) (Q12791 whole entry): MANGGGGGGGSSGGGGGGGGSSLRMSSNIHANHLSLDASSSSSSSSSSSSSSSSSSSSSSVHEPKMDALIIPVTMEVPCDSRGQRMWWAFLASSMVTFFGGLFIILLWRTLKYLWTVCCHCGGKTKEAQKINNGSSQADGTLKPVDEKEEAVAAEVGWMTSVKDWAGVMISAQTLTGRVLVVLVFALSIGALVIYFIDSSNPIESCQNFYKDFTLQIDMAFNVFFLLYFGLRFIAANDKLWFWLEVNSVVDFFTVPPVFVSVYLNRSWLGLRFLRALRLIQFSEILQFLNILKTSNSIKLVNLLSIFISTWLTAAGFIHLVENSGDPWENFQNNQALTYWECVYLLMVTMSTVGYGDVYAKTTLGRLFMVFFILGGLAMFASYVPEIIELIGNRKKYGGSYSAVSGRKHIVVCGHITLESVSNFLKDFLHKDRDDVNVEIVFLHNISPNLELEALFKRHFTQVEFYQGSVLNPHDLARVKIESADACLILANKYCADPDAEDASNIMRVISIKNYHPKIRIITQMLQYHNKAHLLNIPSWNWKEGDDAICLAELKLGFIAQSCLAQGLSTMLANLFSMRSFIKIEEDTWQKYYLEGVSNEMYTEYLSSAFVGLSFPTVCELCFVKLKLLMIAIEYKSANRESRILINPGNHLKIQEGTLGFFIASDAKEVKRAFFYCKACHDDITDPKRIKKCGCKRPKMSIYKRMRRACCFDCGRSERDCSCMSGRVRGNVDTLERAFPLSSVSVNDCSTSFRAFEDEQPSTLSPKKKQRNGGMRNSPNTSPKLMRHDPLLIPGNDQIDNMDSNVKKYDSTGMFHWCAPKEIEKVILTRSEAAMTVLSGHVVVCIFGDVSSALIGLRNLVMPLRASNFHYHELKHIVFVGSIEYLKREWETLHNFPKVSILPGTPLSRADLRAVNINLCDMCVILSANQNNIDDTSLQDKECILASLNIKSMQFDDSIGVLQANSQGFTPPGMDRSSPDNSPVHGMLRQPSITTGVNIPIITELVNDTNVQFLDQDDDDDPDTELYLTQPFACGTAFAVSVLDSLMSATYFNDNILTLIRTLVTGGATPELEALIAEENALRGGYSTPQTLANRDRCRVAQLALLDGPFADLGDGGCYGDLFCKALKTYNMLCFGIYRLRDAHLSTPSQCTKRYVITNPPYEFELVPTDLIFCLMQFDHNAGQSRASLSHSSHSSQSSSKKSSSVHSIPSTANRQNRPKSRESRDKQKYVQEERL

Chain of TRPM8 (hTRPM8) (Q7Z2W7 whole entry): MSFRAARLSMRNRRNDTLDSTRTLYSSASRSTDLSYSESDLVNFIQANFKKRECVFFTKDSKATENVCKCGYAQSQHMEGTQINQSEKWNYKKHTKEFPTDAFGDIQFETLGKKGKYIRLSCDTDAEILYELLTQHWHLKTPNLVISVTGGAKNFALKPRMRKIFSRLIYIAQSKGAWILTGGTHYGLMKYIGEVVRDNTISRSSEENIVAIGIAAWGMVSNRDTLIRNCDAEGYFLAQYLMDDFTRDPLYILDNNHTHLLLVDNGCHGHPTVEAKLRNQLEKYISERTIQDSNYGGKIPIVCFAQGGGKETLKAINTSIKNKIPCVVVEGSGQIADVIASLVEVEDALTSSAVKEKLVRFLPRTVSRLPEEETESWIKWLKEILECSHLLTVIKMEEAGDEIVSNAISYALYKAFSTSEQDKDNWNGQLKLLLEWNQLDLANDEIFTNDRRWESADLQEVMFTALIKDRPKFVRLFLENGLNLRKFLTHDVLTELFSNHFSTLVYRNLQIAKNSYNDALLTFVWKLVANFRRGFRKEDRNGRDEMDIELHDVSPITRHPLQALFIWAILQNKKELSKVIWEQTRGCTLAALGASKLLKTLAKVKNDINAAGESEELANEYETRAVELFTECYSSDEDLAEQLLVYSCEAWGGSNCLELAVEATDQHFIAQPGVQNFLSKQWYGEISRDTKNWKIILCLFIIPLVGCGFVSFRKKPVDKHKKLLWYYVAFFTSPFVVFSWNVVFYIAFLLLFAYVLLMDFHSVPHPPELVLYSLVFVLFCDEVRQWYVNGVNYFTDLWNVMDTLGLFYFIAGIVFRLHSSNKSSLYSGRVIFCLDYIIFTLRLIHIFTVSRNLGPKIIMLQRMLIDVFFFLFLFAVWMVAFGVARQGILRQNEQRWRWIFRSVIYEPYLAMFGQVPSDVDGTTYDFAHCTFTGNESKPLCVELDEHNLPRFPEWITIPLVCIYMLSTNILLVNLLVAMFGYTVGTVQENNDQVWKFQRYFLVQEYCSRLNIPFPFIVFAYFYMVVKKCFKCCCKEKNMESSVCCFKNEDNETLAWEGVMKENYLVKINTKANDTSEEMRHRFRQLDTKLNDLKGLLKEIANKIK
Chain of KV11.1 (hERG) (Q12809 whole entry): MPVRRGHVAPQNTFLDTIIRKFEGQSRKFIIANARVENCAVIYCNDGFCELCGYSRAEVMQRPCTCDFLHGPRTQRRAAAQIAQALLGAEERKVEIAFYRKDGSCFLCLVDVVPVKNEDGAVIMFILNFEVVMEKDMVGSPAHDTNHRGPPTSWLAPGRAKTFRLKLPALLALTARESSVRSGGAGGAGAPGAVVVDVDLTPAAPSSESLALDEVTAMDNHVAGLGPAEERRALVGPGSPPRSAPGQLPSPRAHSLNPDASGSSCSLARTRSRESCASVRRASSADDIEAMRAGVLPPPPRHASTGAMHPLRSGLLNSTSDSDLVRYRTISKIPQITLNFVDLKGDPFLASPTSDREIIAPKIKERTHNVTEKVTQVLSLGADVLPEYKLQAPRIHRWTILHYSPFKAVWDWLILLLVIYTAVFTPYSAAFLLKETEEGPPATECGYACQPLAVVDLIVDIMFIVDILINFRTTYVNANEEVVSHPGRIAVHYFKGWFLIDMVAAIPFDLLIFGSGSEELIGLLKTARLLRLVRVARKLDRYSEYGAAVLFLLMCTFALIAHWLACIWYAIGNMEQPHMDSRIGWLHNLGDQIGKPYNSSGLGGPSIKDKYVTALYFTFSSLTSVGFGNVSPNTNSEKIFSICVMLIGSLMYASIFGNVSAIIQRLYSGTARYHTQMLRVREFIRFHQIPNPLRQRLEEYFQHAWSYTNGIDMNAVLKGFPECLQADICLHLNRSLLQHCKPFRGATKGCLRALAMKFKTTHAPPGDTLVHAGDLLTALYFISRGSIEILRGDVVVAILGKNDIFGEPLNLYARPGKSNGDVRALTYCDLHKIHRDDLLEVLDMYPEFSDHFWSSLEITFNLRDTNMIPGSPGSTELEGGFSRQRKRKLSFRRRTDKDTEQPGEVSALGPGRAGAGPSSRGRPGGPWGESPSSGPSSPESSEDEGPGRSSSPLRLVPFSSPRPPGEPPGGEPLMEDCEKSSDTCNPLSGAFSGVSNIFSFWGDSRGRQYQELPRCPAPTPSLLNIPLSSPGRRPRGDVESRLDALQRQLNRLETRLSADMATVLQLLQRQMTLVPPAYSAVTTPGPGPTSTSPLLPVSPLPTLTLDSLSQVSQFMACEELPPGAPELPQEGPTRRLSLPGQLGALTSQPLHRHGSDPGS

## COc1c(I)cc(CCN)cc1I [DIMTA, 2-(3,5-diiodo-4-methoxyphenyl)ethan-1-amine]
KV11.1 (hERG)
  IC50: 18.7 ± 0.1 µM
TRPM8 (hTRPM8)
  IC50: 112 µM
KCa1.1 (hKCa1.1, KCNMA)
  % inhibition at 5 μM: 18 ± 5%
